For this assay, the system named is T1, GABA receptor.
T1 construct: gene Gabra1
Kind of assay: two-electrode voltage clamp, membrane-transplanted oocytes. The assay is classed as cell-based, Mus musculus. As to conditions: block of GABA-induced Cl- current; n = 5; data not shown. (In general: Two-electrode voltage clamp holds a large cell at a set potential and records current.)

In the case of `CN1CCc2cc3c(cc2[C@H]1[C@@H]1OC(=O)c2c1ccc1c2OCO1)OCO3` [biccuculine], the “% block at 100 μM” value is 87 ± 2%.

Source of the values: paper PMC9146698, “Mammalian Brain Ca^2+ Channel Activity Transplanted into Xenopus laevis Oocytes” (Membranes, 2022).
